Experimental data from patent US6613875B1, “Cyclic peptide tube” (The Scripps Research Institute, priority 1993, dated 2003).
Square brackets hold non-standard residues; d marks the D form.

Legend:
[1] = Incorporation of peptide subunit into lipid bilayers of large unilamellar vesicles (absorption and fluorescence spectroscopy); format: physicochemical; details: aqueous liposomal suspensions
Source text: Incorporation of the peptide subunit into lipid bilayers using large unilamellar vesicles has been established by absorption and fluorescence spectroscopy. Formation of the hydrogen-bonded transmembrane channel structure in phosphatidylcholin liposomes has been supported by FT-IR spectroscopy (FIG. 24). The observed amide-I band at 1624 cm^−1 is not only similar to the carbonyl stretching frequencies found in other nanotube structures disclosed herein, but is also consistent with the infrared spectrum of gramicidin A in similar lipid bilayers. (E. Nabedryk et al in Biophys. J. (1982), vol. 38, pages 243-249. Furthermore, the observed N-H stretching frequency at 3272 cm^−1 strongly supports the formation of a tight network of hydrogen bonds with an average intersubunit distance of 4.7 Å.
The second control peptide cyclo[-(^MeN-D-Ala-Phe)4-] which has the desirable hydrophobic surface characteristics but lacks the propensity for participating in extended hydrogen bonding network, was also designed and tested for ion transport activity. The peptide design incorporates a novel N-methylation strategy on one face of the ring structure which predisposes the subunit toward a dimeric cylindrical structure (Ghadiri, M. R., Kobayashi, K., Granja, J. R., Chadha, R., and McRee, D. E. manuscript in preparation). Such a dimeric cylindrical ensemble is approximately 10 Å thick and can not span the lipid bilayer.
The ten-residue peptide subunit employed in the present study, cyclo[-Gln-(D-Leu-Trp)4-D-Leu-], is made up of largely tryptophan and leucine residues to favor its partitioning into and self-assembly in lipid bilayers. It was synthesized on solid support^5 and characterized by ^1H NMR spectroscopy and mass spectrometry. […] This has been supported by absorption and fluorescence spectrophotometry and gel permeation studies. Formation of a hydrogen bonded transmembrane channel structure in phosphatidylcholin liposomes has been established by FT-IR spectroscopy^6. […]

[2] = Channel-mediated glucose efflux from glucose entrapped unilamellar vesicles, enzyme coupled NADPH assay; format: biochemical; details: for apparent rate constant of glucose transport: 27° C.
Source text: FIG. 28 illustrates a schematic illustration of channel-mediated glucose transport and the enzyme coupled assay used to monitor the transport activity with respect to the channel structure indicated in FIGS. 27A-B. Formation of a transmembrane pore structure(s) initiates glucose efflux from the liposome which can be directly monitored by measuring the rate of NADPH production. The enzymes and cofactors employed are hydrophilic and thus can not pass through the lipid membrane and are too large to penetrate the channel structure. Therefore, only the released glucose can undergo the enzymatic reaction.
FIG. 29 illustrates the ensuing glucose efflux on the addition of various amounts of the channel forming peptide of FIGS. 27A-B, viz., open circles represent 15.0×10^−6 M; closed circles represent 11.0×10^−6 M; open triangles represent 7.5×10^−6 M; closed triangles represent 5.6×10^−6 M; and open diamonds represent 3.8×10^−6 M. Efflux is expressed in terms of the amount of glucose released as a function of time (sampled at 90 sec intervals). The large unilamellar vesicles used in this study contained 200 mM D-glucose. All curves are background corrected to remove any contribution from the nonspecific glucose leakage from the liposomes.
Glucose transport activity was studied in isotonic solutions using glucose entrapped unilamellar lipid vesicles. Unilamellar vesicles, ˜150 nm in diameter, were prepared by the reverse-phase evaporation method using 1,2-dipalmitoyl-Sn-glycero-3-phosphatidylcholine (DPPC) 1-palmitoyl-2-oleoyl-Sn-glycero-3-phosphatidylcholine (POPC) 1-palmitoyl-2-oleoyl-Sn-glycero-3-phosphatidylserine (POPS), and cholesterol in the ratio 1:1:0.1:1 in a solution containing 50, 100, 150, or 200 mM D-glucose, 100 mM NaCl, and 50 mM Tris buffer pH 7.5, according to the method of F. Szoka et al. in Proc. Natl. Acad. Sci. USA (1978), vol. 75, pages 4194-4198. Liposomes were gel-filtered using Sephadex G-25 in an isotonic buffer containing 50, 100, 150, or 200 mM sucrose, 100 mM NaCl, and 50 mM Tris buffer pH 7.5. The liposome preparation was stored at 4° C. and used within 24 hours of the synthesis. The transport phenomenon was monitored spectrophotometrically at 340 nm for the production of NADPH using an enzyme coupled assay (FIG. 28), according to the method of S. C. Kinsky in Methods in Enzymology; Fleischer, S., Packer, L., Eds; Academic Press: London, 1974; vol. 32, pp 501-513. All experiments were performed on a Spectronic-3000 photodiode-array spectrophotometer using 3 ml quartz cuvettes placed in the thermojacketed multiple cell holder and held at 27° C. In a typical experiment the following solutions were sequentially placed in the cuvettes: 750 ml of buffer (300 mM NaCl, 50 mM Tris pH 7.5, 3.5 mM MgCl2, and 0.15 mM CaCl2), 500 ml of the enzyme solution (8 units.ml^−1 of hexokinase, 16 units.ml^−1 of glucose-6-phosphate dehydrogenase, 2.5 mM ATP, 1.3 mM NADP all dissolved in 200 mM NaCl, 50 mM Tris pH 7.5, 3.5 mM MgCl2, and 0.15 mM CaCl2), and 75 ml of the stock liposome solution^8 (2.6×10^−3 M in phospholipids). Total glucose content in each cuvette was determined by Triton X-100 treatment. Transport was initiated by the addition of an appropriate amount (5, 7.5, 10, 15, or 20 ml) of the peptide solution (1 mM in DMF) to the reference and the sample cuvettes (hexokinase was omitted from the reference sample). […] The production of NADPH was monitored at 340 nm for 1.5 h at 90 second time intervals. […]

Substance	partitioning / incorporation into lipid bilayers [1]	display any glucose transport activity under similar assay conditions ([2]; sentence reads 'neither ... nor ... display any glucose transport activity' = none)	apparent rate constant of glucose transport ([2]; liposomes with initial glucose concentration 50 mM)	apparent rate constant of glucose transport ([2]; liposomes with initial glucose concentration 100 mM)	apparent rate constant of glucose transport ([2]; liposomes with initial glucose concentration 150 mM)	apparent rate constant of glucose transport ([2]; liposomes with initial glucose concentration 200 mM)
cyclo[-(Trp-D-Leu)3-Gln-D-Leu-] (cyclo(W[dL]W[dL]W[dL]Q[dL]); SMILES CC(C)C[C@H]1NC(=O)[C@H](CCC(N)=O)NC(=O)[C@@H](CC(C)C)NC(=O)[C@H](Cc2c[nH]c3ccccc23)NC(=O)[C@@H](CC(C)C)NC(=O)[C@H](Cc2c[nH]c3ccccc23)NC(=O)[C@@H](CC(C)C)NC(=O)[C@H](Cc2c[nH]c3ccccc23)NC1=O) [eight residue ion channel forming cyclic peptide, approximately 7.5 Å pore]	rapid partitioning	nor	–	–	–	–
cyclo[-Gln-(D-Leu-Trp)4-D-Leu-] (cyclo(Q[dL]W[dL]W[dL]W[dL]W[dL]); SMILES CC(C)C[C@H]1NC(=O)[C@H](CCC(N)=O)NC(=O)[C@@H](CC(C)C)NC(=O)[C@H](Cc2c[nH]c3ccccc23)NC(=O)[C@@H](CC(C)C)NC(=O)[C@H](Cc2c[nH]c3ccccc23)NC(=O)[C@@H](CC(C)C)NC(=O)[C@H](Cc2c[nH]c3ccccc23)NC(=O)[C@@H](CC(C)C)NC(=O)[C@H](Cc2c[nH]c3ccccc23)NC1=O) [10-residue cyclic peptide forming 10 Å pores that transport glucose]	rapid incorporation	–	0.18±0.02 mol(glucose)/mol(peptide)/min^−1	0.48±0.05 mol(glucose)/mol(peptide)/min^−1	0.74±0.1 mol(glucose)/mol(peptide)/min^−1	1.2±0.09 mol(glucose)/mol(peptide)/min^−1
